{"source": "patent US20090263838A1", "about": "“Method for determining a lung cancer treatment and method for determining the effectiveness of an agent for treatment of lung cancer” (Sanko Junyaku Co., Ltd., priority 2008, published 2009)", "test_system": "non-small cell lung cancer (NSCLC) patients", "experimental": "Potential factors linked to survival such as age, gender, performance status, smoking history, tumor histology, number of prior chemotherapy regimen, and presence of distant metastasis were also reviewed for each patient. Pretreatment interstitial lung disease was diagnosed using a high resolution computed tomography scan of the chest by diagnostic radiologists blinded to any clinical information.\nThe tumor response was assessed as complete response (CR), partial response (PR), no change (NC), or progressive disease (PD) according to the World Health Organization Criteria.\nThe cut-off level of KL-6 was set at 500 U/ml based on the levels of healthy individuals as reported previously.\nGenomic DNAs were extracted from frozen or paraffin embedded specimens and the mutational status of the EGFR tyrosine kinase domain (through exons 18 to 21) was examined by the direct sequence method as described previously. In brief, the PCR amplification for extracted DNAs was done using HotStarTaq DNA polymerase (Qiagen Inc., Valencia, Calif.) with the specific primers and PCR conditions. PCR products were incubated using ExoSAP-IT (Amersham Biosciences Corp., Piscataway, N.J.) and then it was sequenced directly using the Applied Biosystems PRISM dye terminator cycle sequencing method (Perkin-Elmer Corp., Foster City, Calif.) with ABI PRISM 3100 Genetic Analyzer (Applied Biosystems, Foster City, Calif.).\nThe associations between various clinical factors were evaluated using either the χ^2 test or the Fisher's exact test. […] The progression-free and overall survival times were both calculated using the Kaplan-Meier method; different groups were compared using the log-rank test. Associations of various factors with survival were evaluated using the backward stepwise Cox regression analysis. Differences were considered to be statistically significant if the p value was less than 0.05.", "key": {"[1]": {"settings": "patients with elevated KL-6 (≧500 U/ml)"}, "[2]": {"settings": "patients with normal range of KL-6"}}, "note": "Read-outs that look alike come from different tables or passages of the source.", "data": [{"smiles": "COc1cc2ncnc(Nc3ccc(F)c(Cl)c3)c2cc1OCCCN1CCOCC1", "note": "[gefitinib]", "values": [{"measurement": "complete response (CR), number of patients", "setting": "all 41 NSCLC patients", "value": "One"}, {"measurement": "early discontinuance of gefitinib (less than 2 weeks) because of rapid tumor progression", "setting": "all 41 NSCLC patients", "value": "3 (7%) patients"}, {"measurement": "no change (NC), number of patients", "setting": "all 41 NSCLC patients", "value": 20, "unit": "patients"}, {"measurement": "partial response (PR), number of patients", "setting": "all 41 NSCLC patients", "value": "ten"}, {"measurement": "progressive disease (PD), number of patients", "setting": "all 41 NSCLC patients", "value": 10, "unit": "patients"}, {"measurement": "overall objective response rate", "setting": "all 41 NSCLC patients, gefitinib 250 mg daily oral, WHO criteria", "value": 26.8, "unit": "%"}, {"measurement": "1-year survival rate", "setting": "all 41 patients", "value": 61.0, "unit": "%"}, {"measurement": "2-year survival rate", "setting": "all 41 patients", "value": 29.8, "unit": "%"}, {"measurement": "median overall survival time", "setting": "all 41 patients", "value": 13.9, "unit": "months"}, {"measurement": "median progression-free survival time", "setting": "all 41 patients", "value": 4.7, "unit": "months"}, {"measurement": "severe interstitial lung disease or treatment-related death due to gefitinib treatment", "setting": "all 41 patients, during the study period", "value": "neither severe interstitial lung disease nor treatment-related death occurred"}, {"measurement": "overall survival", "setting": "patients with an EGFR mutation", "value": 17.8, "unit": "months"}, {"measurement": "median overall survival time", "setting": "[1]", "value": 8.5, "unit": "months"}, {"measurement": "median progression-free survival time", "setting": "[1]", "value": 2.1, "unit": "months"}, {"measurement": "response to gefitinib", "setting": "patients with elevated serum KL-6 levels (≧500 U/ml)", "value": 23, "unit": "%"}, {"measurement": "median overall survival time", "setting": "[2]", "value": 21.1, "unit": "months"}, {"measurement": "median progression-free survival time", "setting": "[2]", "value": 5.8, "unit": "months"}, {"measurement": "overall survival", "setting": "patients with wild-type EGFR", "value": 8.5, "unit": "months"}, {"measurement": "median survival time", "setting": "patients with wild-type EGFR and elevated serum KL-6", "value": 6.5, "unit": "months"}, {"measurement": "median survival time", "setting": "patients with wild-type EGFR and normal range of KL-6", "value": 13.3, "unit": "months"}, {"measurement": "response to gefitinib", "setting": "patients without elevated serum KL-6 levels", "value": 32, "unit": "%"}]}]}
